Experimental data published in patent US20220324909A1, “THERAPEUTIC PEPTIDES” (COHBAR, INC., priority 2019, published 2022).
Non-standard residues stand in square brackets, D forms with d. Primed or numbered codes have the meaning given here. No end group written: not given here. PEG12(3) = not defined here

Legend:
[1] = tested on: 3T3-L1 adipocytes; assay: Free fatty acid levels in cultured 3T3-L1 mouse adipocytes (Example 4, 25 μM); settings: for Free Fatty Acid Levels, Percent of Control Value: peptide 25 μM, 20-22 h then 3 h with isoproterenol 1 nM, relative to isoproterenol control
Procedure: Mouse 3T3-L1 adipocytes were seeded at 3,000 cells per well in 96-well plates in Pre-adipocyte Medium (Zen-Bio, Durham, N.C.) and grown to confluence at 37° C. in a humidified atmosphere of 5% CO2/95% air. Two days after confluence, cells were placed in Adipocyte Differentiation Medium (Zen-Bio, Durham, N.C.) and cultured for three additional days at 37° C. in a humidified atmosphere of 5% CO2/95% air. The culture media was then replaced with Adipocyte Maintenance Medium (Zen-Bio) and the cells maintained for an additional 9-12 days at 37° C. in a humidified atmosphere of 5% CO2/95% air with partial medium replacement every other day. Following 12-15 days' differentiation, test peptides were added to a final concentration of 25 μM and incubated for 20-22 hours in Adipocyte Maintenance Medium. After 20-22 hours, isoproterenol (1 nM) was added to all wells except untreated controls and test peptides were replenished. Cells were incubated for a further 3 hours in Assay Buffer (Zen-Bio). Free fatty acid concentrations in the media were determined using a Free Fatty Acid Assay Kit (Zen-Bio) according to the manufacturer's instructions using a plate reader (540 nm). Absorbance values were corrected for untreated background and expressed relative to isoproterenol treated cells. Treatment with isoproterenol (1 nM) alone was used as the free fatty acid level stimulatory control.

[2] = tested on: MDA-MB-231 cells; assay: Cell viability, MTS assay in MDA-MB-231 cells; type: cell-based, human
Procedure: Test compounds and reference compound staurosporine (Selleckchem) were all dissolved with DMSO at 10 mM stock. […] Activity was calculated relative to DMSO control. […] Cell viability was 3% of the DMSO control value for Staurosporine (10 μM).

[3] = tested on: MDA-MB-231 cells; assay: Caspase 3/7 activity in MDA-MB-231 cells (Caspase-Glo 3/7); type: cell-based, human
Procedure: The effect of the peptides on cell death/survival can be assessed using a caspase-3 assay. Peptides were dissolved with DMSO at 10 mM stock. […] Staurosporine (Selleckchem) was dissolved with DMSO at 1 mM stock. Caspase-Glo 3/7 Assay Reagent was purchased from Promega (Madison, Wis.). MDA-MB-231 human breast cancer cell line was purchased from American Type Culture Collection (Manassas, Va.). MDA-MB-231 cells were grown in DMEM Medium supplemented with 10% FBS. 100 μg/ml penicillin and 100 μg/ml streptomycin were added to the culture medium. […] 25 μl of Caspase-Glo 3/7 Assay Reagent was added to each well and incubated at 37° C., 5% CO2 for 1 hour. Luminescence for each sample well on the plate was measured by Envision 2104 Multilabel Reader (PerkinElmer, Santa Clara, Calif.). Activity was calculated relative to DMSO control.

[4] = tested on: MCF-7 cells; assay: Cell viability, MTS assay in MCF-7 cells
Procedure: Peptides and reference compound staurosporine (Selleckchem) were dissolved with DMSO at 10 mM stock. CellTiter 96@ AQueous One Solution Reagent (MTS assay reagent) was purchased from Promega (Madison, Wis.). MCF-7 human breast cancer cell line was purchased from American Type Culture Collection (Manassas, Va.). MCF-7 cells were grown in EMEM Medium supplemented with 10% FBS and 0.01 mg/ml human recombinant insulin. 100 μg/ml penicillin and 100 μg/ml streptomycin were added to the culture medium. Cells were incubated with test peptides at 10 μM at 37° C. in a humidified atmosphere of 5% CO2 and 95% air for 72 hours. 5 μl of CellTiter 96@ AQueous One Solution Reagent (MTS assay reagent) was added to each well and incubated at 37° C., 5% CO2 for 5 hours. Absorbance at 492 nm was recorded by Envision 2104 Multilabel Reader. Treatment with DMSO alone was used as the cell viability activity control. The relative standard deviation of the DMSO control was 3%.

[5] = tested on: C2C12 cells; assay: Caspase 3/7 activity in C2C12 cells; type: cell-based, mouse; settings: staurosporine 100 nM, positive control
Procedure: The effect of the peptides on cell death/survival can be assessed using a caspase-3/7 assay in cultured cells such as mouse myoblast cells. Peptides were initially prepared as 10 mM stock in DMSO, diluted to 1 mM in H2O, and used at a final concentration of 10 μM (0.1% DMSO). […] Staurosporine (Abcam, Cambridge, Mass.) was dissolved at 10 mM in DMSO as a stock solution. Caspase-Glo 3/7 Assay Reagent was purchased from Promega (Madison, Wis.). C2C12 cell line was purchased from American Type Culture Collection (Manassas, Va.). C2C12 cells were grown in DMEM supplemented with 20% FBS with 100 IU/ml penicillin and 100 μg/ml streptomycin. […] C2C12 cells were seeded at 4,000 cells per well on 96-well plates. […] Caspase 3/7 activity was determined using a Caspase-Glo 3/7 Assay kit according to the manufacturer's instructions. Luminescence for each sample well on the plate was measured using a Cytation 3 plate reader (BioTek, Winooski, Vt.). Activity was calculated relative to 0.1% DMSO control.

[6] = tested on: Male DIO mice; assay: Metabolic parameters in diet induced obese (DIO) mice, Example 20; type: in vivo, mouse; settings: N = 8
Procedure: Male C57BL/6 mice were maintained on a high fat diet for 18 weeks to develop diet induced obesity. Animals were randomized to treatment groups based on blood glucose levels and body weight. The peptides of the invention were administered to groups of male DIO mice once or twice daily by intraperitoneal injection at a dose of 5 mg/kg/dose for 8 to 10 days (N=8 animals per treatment group). Additional groups of male DIO mice (n=8) received vehicle (water) alone administered once or twice daily by intraperitoneal injection. Body weight, blood glucose levels and food intake were monitored. Body mass distribution (fat vs lean) was determined by quantitative whole body NMR prior to dosing and at the end of dosing.

[7] = tested on: 3T3-L1 mouse adipocytes; assay: Free fatty acid levels in 3T3-L1 mouse adipocytes (Example 12, 10 μM); type: cell-based; settings: insulin 100 nM, positive control
Procedure: The effect of the peptides on fatty acid metabolism can be assessed using an assay of free fatty acid levels in cultured cells such as mouse adipocytes. Peptides were initially prepared as 10 mM stock in DMSO, diluted to 1 mM in H2O, and used at a final concentration of 10 μM (0.1% DMSO). […] Insulin at 100 nM was added to control wells.

[8] = tested on: 3T3-L1 mouse adipocytes; assay: Free fatty acid levels in cultured 3T3-L1 mouse adipocytes and insulin dependence (Example 17); type: cell-based; settings: insulin 10 nM, positive control
Procedure: The effect of the peptides on fatty acid metabolism can be assessed using an assay to monitor free fatty acid levels produced by cultured cells such as mouse adipocytes. […] Following 3 h incubation, conditioned medium from each well was transferred to a fresh 96-well plate. […] Absorbance values were expressed as percent control activity relative to 0.1 nM isoproterenol treated cells (no insulin) for 10 μM peptide alone or 0.25 nM insulin treated cells (with insulin) for 10 μM peptide in presence of 0.25 nM insulin. […] Data are presented as averages values from 2-3 independent experiments with each data point performed in triplicate.

[9] = tested on: H4-IIE cells; assay: Glucose production in cultured H4-IIE cells and insulin dependence; type: cell-based, rat; settings: insulin 800 μM, modest inhibitor control
Procedure: The effect of the peptides on glucose homeostasis can be assessed using an assay to monitor glucose production by cultured cells such as rat hepatocytes. […] Following 24 h incubation, conditioned medium from each well was transferred to a fresh 96-well plate. Glucose concentrations in the medium were determined using a Glucose Assay kit (Abcam; Cambridge, Mass.) according to the manufacturer's instructions; absorbance measured using a Cytation 3 plate reader at 570 nm (BioTek, Winooski, Vt.). […] Untreated cells were used as reference for maximal glucose production. […] Insulin at 800 μM was used as a modest inhibitor glucose production. […] Data are presented as averages values from 2-4 independent experiments with each data point performed in triplicate.

[10] = staurosporine 10 μM, positive control
[11] = 5 mg/kg/dose QD intraperitoneal, 10 days
[12] = 5 mg/kg/dose BID intraperitoneal, 8 days

2 (MRRIIGIVFQCLCGL) [compound 2]
Free Fatty Acid Levels, Percent of Control Value [1]: 97% | MTS Assay, Percent of Control Activity ([2]; 72 hours, relative to DMSO control, concentration not given): 79% | Caspase 3/7 Activity, Percent of Control Activity ([3]; peptide 10 μM, 18 hours, relative to DMSO control): 62% | MTS Assay, Percent of Control Activity ([4]; peptide 10 μM, 72 hours, relative to DMSO control): 67%

3 (RRIIGIVFQCLCGL) [compound 3]
Free Fatty Acid Levels, Percent of Control Value [1]: 89%

4 (RRIIGIVFQCLCG) [compound 4]
Free Fatty Acid Levels, Percent of Control Value [1]: 100%

5 (RRIIGIVFQCLC) [compound 5]
Free Fatty Acid Levels, Percent of Control Value [1]: 115%

CN[C@@H]1C[C@H]2O[C@@](C)([C@@H]1OC)n1c3ccccc3c3c4c(c5c6ccccc6n2c5c31)C(=O)NC4 [staurosporine, reference compound]
Cell viability, % of DMSO control value [2, 10]: 3% | Caspase activity, % of background-corrected DMSO control value ([3]; staurosporine 0.05 nM, positive control): 130% | Cell viability, % of background corrected DMSO control value [4, 10]: < 5% | Caspase 3/7 activity, % of background-corrected DMSO control value [5]: 670%

(PEG12)KRRIIGIVFQCLCG(dA) ([PEG12(3)]KRRIIGIVFQCLCG[dA]; cysteine pairing not given here) [SEQ ID NO: 42]
Difference from Vehicle Control: Decrease from Baseline in Blood Glucose [6, 11]: -10.7 mg/dL | Difference from Vehicle Control: Decrease from Baseline in Body Weight [6, 11]: −2.94%

(PEG12)KRRMMGMVFQCLCG(dA) (KRRMMGMVFQCLCGA; N-terminal PEG12; C-terminal D-alanine; (1)..(1) PEG12; (15)..(15) d-Ala) [SEQ ID NO: 20]
Difference from Vehicle Control: Decrease from Baseline in Blood Glucose [6, 11]: -0.75 mg/dL | Difference from Vehicle Control: Decrease from Baseline in Body Weight [6, 11]: −3.59% | Difference from Vehicle Control: Decrease from Baseline in Fat Mass [6, 11]: -1.78 g

RRMMGMVEQSLCG(dA) (RRMMGMVEQSLCG[dA]) [SEQ ID NO: 38]
Difference from Vehicle Control: Decrease from Baseline in Blood Glucose [6, 11]: -24.1 mg/dL | Difference from Vehicle Control: Decrease from Baseline in Body Weight [6, 11]: −3.12%

RRMMGMVFQCLCG(dA) (RRMMGMVFQCLCG[dA]; cysteine pairing not given here) [SEQ ID NO: 8]
Difference from Vehicle Control: Decrease from Baseline in Blood Glucose [6, 12]: -14.3 mg/dL | Difference from Vehicle Control: Decrease from Baseline in Body Weight [6, 12]: −5.66% | Difference from Vehicle Control: Decrease from Baseline in Fat Mass [6, 12]: -2.15 g

RRMMGMVFQSLCG(dA) (RRMMGMVFQSLCG[dA]) [SEQ ID NO: 15]
Difference from Vehicle Control: Decrease from Baseline in Blood Glucose [6, 11]: -3.38 mg/dL | Difference from Vehicle Control: Decrease from Baseline in Body Weight [6, 11]: −4.97% | Difference from Vehicle Control: Decrease from Baseline in Fat Mass [6, 11]: -2.19 g

insulin [reference compound]
Free fatty acid levels, % of isoproterenol control value [7]: < 5% | Free fatty acid levels, % of isoproterenol control value ([1]; insulin 100 nM, positive control): < 5% | Free fatty acid levels, % of isoproterenol control value [8]: < 5% | Glucose levels, % of untreated control value [9]: 20-50%
